Laboratory results as given in patent EP1537869A2, “Radiosensibilizer and preparation thereof” (Christian-Albrechts-Universität zu Kiel, priority 2003, dated 2005).

Key:
[1] = system: Mammakarzinomzell-Linie MDA-MB 231; assay: In vitro toxicity (T/C in %) on breast carcinoma cell line; type: cell-based, menschlichen; details: MDA-MB 231, qualitative or ranking
From the text: Die Toxizität (T/C in %) weiterer erstmals dargestellter α-Diimin-Komplexe der Nickel-Triade unterschiedlicher Strukturtypen wurde in vitro an der menschlichen Mammakarzinomzell-Linie MDA-MB 231 getestet.

[2] = system: hypoxischen CHO-ZeIlen; assay: Radiosensitisation of hypoxic CHO cells (enhancement ratio ER); type: cell-based; details: radiosensitising effect
From the text: Nickel-α-Diimin-Komplexe der Strukturtypen (α-Diimin)NiCl2 und [(α-Diimin)2Ni](ClO4)2 mit dem α-Diimin Antipy-PCD zeigen gegenüber isosteren Palladium- und Platin-Komplexen erhöhte radiosensibilisierende Wirkungen in hypoxischen CHO-ZeIlen; ER = 1,41 resp. 1,37. Für den unkoordinierten Antipy-PCD-Liganden, mit dem bekannten bioaktiven Molekülteil Phenazon, konnte nur ein sehr geringer strahlensensibilisierender Effekt (ER = 1,13) nachgewiesen werden. Die neutralen α-Diimin-Metall-Halogenid-Komplexe (a) der Nickel-Triade haben gegenüber analogen ionischen Perchlorat-Komplexen (b) eine deutlich höhere radiosensibilisierende Wirkung. Folgende Reihen entsprechender Komplexe - bezogen auf das Zentralmetall - mit abnehmenden o.g. sensibilisierenden Eigenschaften wurden ermittelt: für • (a) Ni > Pd > Pt • (b) Ni > Pt > Pd
Von den untersuchten neuen Platin-α-Diimin-Komplexen ist die fünffach koordinierte (Antipy-PCD)PtCl2(NH3)-Verbindung wegen ihres relativ hohen strahlensensibilisierenden Effektes (ER = 1,36) - verglichen mit ER-Literaturdaten für Platinkomplexe - bedeutsam. Eine entsprechende Sensibilisierung aerobischer CHO-ZeIlen durch die hier untersuchten Substanzen wurde in keinem Fall beobachtet.

[3] = in vitro; details: hamster, cho cells

For `COc1cc([N+](=O)[O-])ccc1N=Cc1ccccn1` [2-MeO-4-NO2-Ph-PCD], the “Toxizität (T/C in %)” value [1] was “merkliche Toxizität”.
In the case of `Cc1c(N=Cc2ccccn2)c(=O)n(-c2ccccc2)n1C` [Antipy-PCD, 2-Pyridinal-2,3-dihydro-1,5-dimethyl-3-oxo-2-phenyl-1H-pyrazol-4-ylimin], the ER [2] is reported as 1,13 and the viability at 3 h, 300 µM [3] is reported as 36%.
In the case of “Bis(2-pyridinal-2,3-dihydro-1,5-dimethyl-3-oxo-2-phenyl-1H- pyrazol-4-ylimin)-nickel(II)perchlorat [[(α-Diimin)2Ni](ClO4)2]”, the ER [2] is reported as 1,37.
In the case of “Dichloro-2-pyridinal-(2,3-dihydro-1,5-dimethyl-3-oxo-2-phenyl-1H-pyrazol-4-ylimin)ammin-platin(II) [(Antipy-PCD)PtCl2(NH3)]”, the ER [2] is reported as 1,36.
